In PubChem BioAssay AID180 (DTP/NCI, 2004):
Where “and” joins values, the source holds several entries; their conditions need not be identical. Identical values can stand only once.

Tested on: BDF1 mice, Adenocarcinoma 755 s.c., tumor weight T/C
Test: NCI In Vivo Anticancer Drug Screen. Data for tumor model Adenocarcinoma 755 (subcutaneous) in B6D2F1 (BDF1) mice
Conditions: endpoint: mean tumor weight, schedule: Q01DX011 (ip), higher = larger tumour
Method in brief: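 Values express treated (T) relative to vehicle-dosed control (C) animals, based on survival or tumour size measured after compound treatment of mice bearing a transplanted tumour.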

[1] = dose: 5.0 mg/kg/injection, vehicle: other
[2] = dose: 10.0 mg/kg/injection, vehicle: other
[3] = dose: 50.0 mg/kg/injection, vehicle: carboxymethylcellulose (CMC)
[4] = dose: 25.0 mg/kg/injection, vehicle: methylcellulose (MC)
[5] = dose: 75.0 mg/kg/injection, vehicle: methylcellulose (MC)
[6] = dose: 225.0 mg/kg/injection, vehicle: methylcellulose (MC)
[7] = dose: 15.0 mg/kg/injection, vehicle: methylcellulose (MC)
[8] = dose: 30.0 mg/kg/injection, vehicle: carboxymethylcellulose (CMC)
[9] = dose: 60.0 mg/kg/injection, vehicle: carboxymethylcellulose (CMC)
[10] = dose: 120.0 mg/kg/injection, vehicle: carboxymethylcellulose (CMC)
[11] = dose: 240.0 mg/kg/injection, vehicle: carboxymethylcellulose (CMC)

For `CCCCCCCCCCCC(=O)N(CC)CC`, the T/C (dose: 15.6 mg/kg/injection, vehicle: other) was 92 % of control, the T/C (dose: 31.2 mg/kg/injection, vehicle: other) was 82 % of control and the T/C (dose: 62.5 mg/kg/injection, vehicle: other) was 84 % of control.

For `NNC(=O)NC(=O)NN`, the T/C (dose: 13.06 mg/kg/injection, vehicle: carboxymethylcellulose (CMC)) was 117 % of control, the T/C (dose: 26.13 mg/kg/injection, vehicle: carboxymethylcellulose (CMC)) was 187 % of control and the T/C (dose: 52.25 mg/kg/injection, vehicle: carboxymethylcellulose (CMC)) was 74 % of control. The T/C (dose: 104.5 mg/kg/injection, vehicle: carboxymethylcellulose (CMC)) was 79 % of control, the T/C (dose: 3845.0 micrograms/kg/injection, vehicle: carboxymethylcellulose (CMC)) was 207 % of control and the T/C (dose: 7690.0 micrograms/kg/injection, vehicle: carboxymethylcellulose (CMC)) was 46 % of control.

For `COC1C(OC(=O)/C=C/C=C/C=C/C=C/C(=O)O)CCC2(CO2)C1C1(C)OC1CC=C(C)C` (configuration not stated), the T/C (dose: 2.5 mg/kg/injection, vehicle: other) was 49 % of control, the T/C [1] was 61 % of control and the T/C (dose: 5.0 mg/kg/injection, vehicle: saline) was 78 % of control. For the same compound, the T/C (dose: 10.0 mg/kg/injection, vehicle: methylcellulose (MC)) was 38 % of control, the T/C [2] was 40 % of control and the T/C (dose: 10.0 mg/kg/injection, vehicle: saline) was 94 % of control. For the same compound, the T/C (dose: 20.0 mg/kg/injection, vehicle: methylcellulose (MC)) was 28 % of control, the T/C (dose: 20.0 mg/kg/injection, vehicle: other) was 22 % of control and the T/C (dose: 20.0 mg/kg/injection, vehicle: saline) was 49 % of control. The T/C (dose: 40.0 mg/kg/injection, vehicle: methylcellulose (MC)) was 24 % of control, the T/C (dose: 40.0 mg/kg/injection, vehicle: other) was 18 % of control and the T/C (dose: 40.0 mg/kg/injection, vehicle: saline) was 63 % of control. The T/C (dose: 80.0 mg/kg/injection, vehicle: other) was 26 % of control and the T/C (dose: 80.0 mg/kg/injection, vehicle: saline) was 58 % of control.

With `OCC1CCC(n2cnc3c(=S)nc[nH]c32)C1` (configuration not stated) the T/C [3] was 89 % of control, the T/C (dose: 100.0 mg/kg/injection, vehicle: carboxymethylcellulose (CMC)) was 88 % of control and the T/C (dose: 200.0 mg/kg/injection, vehicle: carboxymethylcellulose (CMC)) was 48 % of control.

For `Brc1ncnc2c1ncn2C1CCCS1` (configuration not stated), the T/C [4] was 75 % of control, the T/C [5] was 66 % of control and the T/C [6] was 86 % of control.

For `Cc1ccccc1Nc1cc(=S)nc(N)[nH]1`, the T/C [7] was 122 % of control, the T/C (dose: 31.0 mg/kg/injection, vehicle: methylcellulose (MC)) was 91 % of control and the T/C (dose: 62.0 mg/kg/injection, vehicle: methylcellulose (MC)) was 92 % of control. For the same compound, the T/C (dose: 250.0 mg/kg/injection, vehicle: methylcellulose (MC)) was 84 % of control.

With `Cc1ccc(/C=N/Nc2nc3c([nH]2)c(=O)n(C)c(=O)n3C)cc1` the T/C [8] was 95 % of control, the T/C [9] was 115 % of control and the T/C [10] was 112 % of control. The T/C [11] was 81 % of control.

In the case of `CCN(CC)CCOc1ccc(/C=N/Nc2nc3c(c(=O)n(C)c(=O)n3C)n2C)cc1`, the T/C [8] is reported as 94 % of control, the T/C [9] is reported as 113 % of control and the T/C [11] is reported as 102 % of control and 124 % of control.

`O=C1N(Br)C(=O)C(c2ccc(Cl)cc2)(c2ccc(Cl)cc2)N1Br` was tested, and the T/C (dose: 1.7 mg/kg/injection, vehicle: carboxymethylcellulose (CMC)) was 42 % of control, the T/C (dose: 3.5 mg/kg/injection, vehicle: carboxymethylcellulose (CMC)) was 76 % of control and the T/C (dose: 7.0 mg/kg/injection, vehicle: carboxymethylcellulose (CMC)) was 91 % of control. For the same compound, the T/C (dose: 14.0 mg/kg/injection, vehicle: carboxymethylcellulose (CMC)) was 35 % of control and 39 % of control and 43 % of control, the T/C (dose: 28.0 mg/kg/injection, vehicle: carboxymethylcellulose (CMC)) was 35 % of control and 49 % of control and the T/C [8] was 22 % of control and 38 % of control. For the same compound, the T/C (dose: 56.0 mg/kg/injection, vehicle: carboxymethylcellulose (CMC)) was 20 % of control, the T/C [9] was 29 % of control and 35 % of control and the T/C (dose: 112.0 mg/kg/injection, vehicle: carboxymethylcellulose (CMC)) was 38 % of control. The T/C [10] was 14 % of control.

For `CC(=O)NC1=C(N2CC2)C(=O)C(NC(C)=O)=C(N2CC2)C1=O`, the T/C (dose: 0.02 mg/kg/injection, vehicle: carboxymethylcellulose (CMC)) was 91 % of control, the T/C (dose: 0.02 mg/kg/injection, vehicle: methylcellulose (MC)) was 71 % of control and the T/C (dose: 0.03 mg/kg/injection, vehicle: carboxymethylcellulose (CMC)) was 65 % of control. For the same compound, the T/C (dose: 0.05 mg/kg/injection, vehicle: methylcellulose (MC)) was 69 % of control, the T/C (dose: 0.06 mg/kg/injection, vehicle: carboxymethylcellulose (CMC)) was 51 % of control and the T/C (dose: 0.1 mg/kg/injection, vehicle: methylcellulose (MC)) was 50 % of control. For the same compound, the T/C (dose: 0.12 mg/kg/injection, vehicle: carboxymethylcellulose (CMC)) was 21 % of control.

In the case of `Cn1c(=O)c2[nH]c(COCc3nc4c([nH]3)c(=O)n(C)c(=O)n4C)nc2n(C)c1=O`, the T/C [4] is reported as 48 % of control, the T/C [5] is reported as 65 % of control and the T/C [6] is reported as 21 % of control.

In the case of `Cn1c2c(sc1=O)CCC2`, the T/C (dose: 88.0 mg/kg/injection, vehicle: methylcellulose (MC)) is reported as 54 % of control and the T/C (dose: 175.0 mg/kg/injection, vehicle: methylcellulose (MC)) is reported as 80 % of control.

In the case of `Cn1cnc2c(ncn2C2CC(O)C(CO)O2)c1=O` (configuration not stated), the T/C (dose: 120.0 mg/kg/injection, vehicle: saline) is reported as 105 % of control and the T/C (dose: 240.0 mg/kg/injection, vehicle: saline) is reported as 98 % of control.

With `Cc1nc2nc(N)nc(N)c2nc1C` the T/C (dose: 12.62 mg/kg/injection, vehicle: carboxymethylcellulose (CMC)) was 67 % of control, the T/C (dose: 15.63 mg/kg/injection, vehicle: carboxymethylcellulose (CMC)) was 50 % of control and the T/C (dose: 62.5 mg/kg/injection, vehicle: carboxymethylcellulose (CMC)) was 122 % of control and 123 % of control. For the same compound, the T/C (dose: 125.0 mg/kg/injection, vehicle: carboxymethylcellulose (CMC)) was 58 % of control.

With `CC1CN1C(=O)c1cc(C(=O)N2CC2C)cc(C(=O)N2CC2C)c1` (configuration not stated) the T/C [7] was 69 % of control and the T/C (dose: 30.0 mg/kg/injection, vehicle: methylcellulose (MC)) was 57 % of control and 64 % of control.

For `Nc1nc(SCc2ccc([N+](=O)[O-])cc2)c2[nH]cnc2n1`, the T/C (dose: 600.0 mg/kg/injection, vehicle: carboxymethylcellulose (CMC)) was 10 % of control, the T/C (dose: 750.0 mg/kg/injection, vehicle: carboxymethylcellulose (CMC)) was 10 % of control and the T/C (dose: 800.0 mg/kg/injection, vehicle: carboxymethylcellulose (CMC)) was 8 % of control. For the same compound, the T/C (dose: 900.0 mg/kg/injection, vehicle: carboxymethylcellulose (CMC)) was 1 % of control and 5 % of control and the T/C (dose: 1000.0 mg/kg/injection, vehicle: carboxymethylcellulose (CMC)) was 6 % of control.

In the case of `CCCCOC(=O)C1(N)CCCC1`, the T/C (dose: 3.12 mg/kg/injection, vehicle: carboxymethylcellulose (CMC)) is reported as 75 % of control, the T/C (dose: 6.25 mg/kg/injection, vehicle: carboxymethylcellulose (CMC)) is reported as 80 % of control and the T/C (dose: 12.5 mg/kg/injection, vehicle: carboxymethylcellulose (CMC)) is reported as 66 % of control. The T/C (dose: 25.0 mg/kg/injection, vehicle: carboxymethylcellulose (CMC)) was 29 % of control and 35 % of control and the T/C [3] was 12 % of control.

With `CC(C)Cn1cnc2c(SCC(=O)O)nc(N)nc21` the T/C [4] was 114 % of control, the T/C [5] was 85 % of control and the T/C [6] was 114 % of control.

For `COc1cc(/C=N/Nc2nc3c([nH]2)c(=O)n(C)c(=O)n3C)ccc1O`, the T/C [8] was 91 % of control and the T/C [10] was 119 % of control.

For `CC(=O)N(C(C)C)C(C)C`, the T/C [1] was 95 % of control and the T/C [2] was 91 % of control.
